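Protocol summary: plate cells (96-well), add compound at 5 concentrations, incubate 48 h, interpolate endpoints linearly. GI50 marks 50% less growth.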 Active and inactive are the calls of the source. Cut-off read from the data, not from the text of the source: active = GI50 up to about 1.1 µM and inactive = higher.
How the values were obtained:
Experiment in all cases: inhibition of tumour cell growth, NCI panel, 48 h
A498 = system: A498
ACHN = system: ACHN
KM12 = system: KM12
M14 = system: M14
MCF7 = system: MCF7
NCI/ADR-RES = system: NCI/ADR-RES
PC-3 = system: PC-3
SK-MEL-28 = system: SK-MEL-28
SK-OV-3 = system: SK-OV-3
SN12C = system: SN12C
SW-620 = system: SW-620
T47D = system: T47D
TK-10 = system: TK-10
UO-31 = system: UO-31
CCRF-CEM = system: CCRF-CEM
HCT-116 = system: HCT-116
HCT-15 = system: HCT-15
HL-60 = system: HL-60
Malme-3M = system: Malme-3M

Compound	GI50 (A498)	GI50 (ACHN)	GI50 (KM12)	GI50 (M14)	GI50 (MCF7)	GI50 (NCI/ADR-RES)	GI50 (PC-3)	GI50 (SK-MEL-28)	GI50 (SK-OV-3)	GI50 (SN12C)	GI50 (SW-620)	GI50 (T47D)	GI50 (TK-10)	GI50 (UO-31)	GI50 (CCRF-CEM)	GI50 (HCT-116)	GI50 (HCT-15)	GI50 (HL-60)	GI50 (Malme-3M)
NNC(=O)Cn1c2ccc(Br)cc2c2nc3ccccc3nc21	47.1 µM (inactive)	36.6 µM (inactive)	> 100 µM (inactive)	> 100 µM (inactive)	69.3 µM (inactive)	> 100 µM (inactive)	> 100 µM (inactive)	47.8 µM (inactive)	43.7 µM (inactive)	> 100 µM (inactive)	> 100 µM (inactive)	> 100 µM (inactive)	56 µM (inactive)	19.9 µM (inactive)	–	–	–	–	–
O=C(Nc1ccccc1C(=O)NCc1ccccc1)/C(=C/c1ccccc1)NC(=O)c1ccccc1	> 100 µM (inactive)	> 100 µM (inactive)	> 100 µM (inactive)	> 100 µM (inactive)	> 100 µM (inactive)	62.2 µM (inactive)	> 100 µM (inactive)	> 100 µM (inactive)	> 100 µM (inactive)	> 100 µM (inactive)	> 100 µM (inactive)	> 100 µM (inactive)	> 100 µM (inactive)	> 100 µM (inactive)	> 100 µM (inactive)	> 100 µM (inactive)	> 100 µM	> 100 µM (inactive)	–
O=C(c1ccccc1)n1[nH]c(=O)n(-c2ccc(Cl)cc2)c1=O	–	> 100 µM (inactive)	> 100 µM (inactive)	> 100 µM (inactive)	> 100 µM (inactive)	> 100 µM (inactive)	> 100 µM (inactive)	> 100 µM (inactive)	> 100 µM (inactive)	> 100 µM (inactive)	> 100 µM (inactive)	> 100 µM (inactive)	> 100 µM (inactive)	> 100 µM (inactive)	> 100 µM (inactive)	> 100 µM (inactive)	> 100 µM	> 100 µM (inactive)	> 100 µM (inactive)
CCCCC(=O)Nc1ccc2cc(C(=O)OC)c(ON3C(=O)c4ccccc4C3=O)nc2n1	27.4 µM (inactive)	28.1 µM (inactive)	30.3 µM (inactive)	17.9 µM (inactive)	43.2 µM (inactive)	32.6 µM (inactive)	28.4 µM (inactive)	23.2 µM (inactive)	48.1 µM (inactive)	28.9 µM (inactive)	46 µM (inactive)	35.3 µM (inactive)	14.6 µM (inactive)	18.2 µM (inactive)	71.3 µM (inactive)	15.7 µM (inactive)	40.6 µM	–	17.9 µM (inactive)
Clc1nc(Cl)c(CBr)c(Cl)n1	18.1 µM (inactive)	4.84 µM (inactive)	2.71 µM (inactive)	2.91 µM (inactive)	5.37 µM (inactive)	4.29 µM (inactive)	6.19 µM (inactive)	5.74 µM (inactive)	15.2 µM (inactive)	2.63 µM (inactive)	1.89 µM (inactive)	13.5 µM (inactive)	4.7 µM (inactive)	3.33 µM (inactive)	0.427 µM (active)	2.48 µM (inactive)	2.65 µM	–	4.16 µM (inactive)
CC(=O)OCC1OC(O[C@H]2C=C[C@@H](C(=O)OCc3ccccc3)n3c(=O)n(-c4ccccc4)c(=O)n32)C(OC(C)=O)C(OC(C)=O)C1OC(C)=O (stereo partly specified)	2.55 µM (inactive)	1.71 µM (inactive)	3.27 µM (inactive)	1.78 µM (inactive)	1.17 µM (inactive)	3.2 µM (inactive)	3.69 µM (inactive)	1.86 µM (inactive)	18.7 µM (inactive)	1.94 µM (inactive)	1.77 µM (inactive)	2.62 µM (inactive)	2.02 µM (inactive)	1.57 µM (inactive)	0.851 µM (active)	2.22 µM (inactive)	0.741 µM	0.262 µM (active)	–
Cc1cc2c(c(S(=O)(=O)c3ccccc3[N+](=O)[O-])c1)NCCC2	> 100 µM (inactive)	28.9 µM (inactive)	63.8 µM (inactive)	69.8 µM (inactive)	58.6 µM (inactive)	50 µM (inactive)	27.9 µM (inactive)	54 µM (inactive)	> 100 µM (inactive)	76.4 µM (inactive)	> 100 µM (inactive)	6.44 µM (inactive)	> 100 µM (inactive)	37.4 µM (inactive)	–	–	33.7 µM	26.2 µM (inactive)	44.8 µM (inactive)
COC(=O)/C(C#N)=C1\NC(=O)CC(c2ccccc2)C1C#N (stereo unspecified)	–	> 100 µM (inactive)	> 100 µM (inactive)	> 100 µM (inactive)	> 100 µM (inactive)	> 100 µM (inactive)	> 100 µM (inactive)	> 100 µM (inactive)	> 100 µM (inactive)	> 100 µM (inactive)	> 100 µM (inactive)	> 100 µM (inactive)	> 100 µM (inactive)	> 100 µM (inactive)	> 100 µM (inactive)	> 100 µM (inactive)	> 100 µM	> 100 µM (inactive)	> 100 µM (inactive)
FC(F)(Sc1ncc[nH]1)c1nc2ccccc2o1	> 100 µM (inactive)	> 100 µM (inactive)	> 100 µM (inactive)	> 100 µM (inactive)	> 100 µM (inactive)	> 100 µM (inactive)	> 100 µM (inactive)	> 100 µM (inactive)	> 100 µM (inactive)	> 100 µM (inactive)	> 100 µM (inactive)	> 100 µM (inactive)	> 100 µM (inactive)	> 100 µM (inactive)	> 100 µM (inactive)	> 100 µM (inactive)	> 100 µM	–	> 100 µM (inactive)
BrCc1ccc(CBr)c2c1-c1c(CBr)ccc3ccc(CBr)c-2c13	> 100 µM (inactive)	> 100 µM (inactive)	> 100 µM (inactive)	> 100 µM (inactive)	> 100 µM (inactive)	> 100 µM (inactive)	36.6 µM (inactive)	> 100 µM (inactive)	> 100 µM (inactive)	> 100 µM (inactive)	> 100 µM (inactive)	> 100 µM (inactive)	> 100 µM (inactive)	> 100 µM (inactive)	–	98.6 µM (inactive)	> 100 µM	40.6 µM (inactive)	> 100 µM (inactive)
CCOC1Oc2ccccc2-c2nc(N)ncc21 (stereo unspecified)	22.7 µM (inactive)	59.4 µM (inactive)	39.4 µM (inactive)	56.8 µM (inactive)	37.4 µM (inactive)	39.7 µM (inactive)	41.5 µM (inactive)	–	> 100 µM (inactive)	77.1 µM (inactive)	46.3 µM (inactive)	51.3 µM (inactive)	33.2 µM (inactive)	43.5 µM (inactive)	36.8 µM (inactive)	36.5 µM (inactive)	14 µM	20.8 µM (inactive)	–
N#Cc1c2c(c(N)oc1=O)C(c1ccccc1)CC(=O)N2 (stereo unspecified)	–	> 100 µM (inactive)	> 100 µM (inactive)	> 100 µM (inactive)	> 100 µM (inactive)	> 100 µM (inactive)	> 100 µM (inactive)	> 100 µM (inactive)	> 100 µM (inactive)	> 100 µM (inactive)	> 100 µM (inactive)	> 100 µM (inactive)	> 100 µM (inactive)	> 100 µM (inactive)	> 100 µM (inactive)	> 100 µM (inactive)	> 100 µM	> 100 µM (inactive)	> 100 µM (inactive)
c1ccc(C(=NNc2cnc3ccccc3n2)c2ccccn2)cc1	20.9 µM (inactive)	0.405 µM (active)	4.08 µM (inactive)	0.425 µM (active)	0.371 µM (active)	0.494 µM (active)	2.56 µM (inactive)	12.3 µM (inactive)	3.78 µM (inactive)	0.991 µM (active)	0.423 µM (active)	0.0188 µM (active)	–	0.76 µM (active)	0.208 µM (active)	1.76 µM (inactive)	0.424 µM	0.109 µM (active)	0.532 µM (active)
CCN(CC)c1ccc2cc(C(=O)Nc3ccccc3)c(=N)oc2c1	–	> 100 µM (inactive)	> 100 µM (inactive)	> 100 µM (inactive)	> 100 µM (inactive)	> 100 µM (inactive)	> 100 µM (inactive)	> 100 µM (inactive)	> 100 µM (inactive)	> 100 µM (inactive)	> 100 µM (inactive)	> 100 µM (inactive)	> 100 µM (inactive)	> 100 µM (inactive)	> 100 µM (inactive)	> 100 µM (inactive)	> 100 µM	> 100 µM (inactive)	> 100 µM (inactive)
O=C(O)C1[C@@H](C(=O)O)C1(Br)CBr (stereo partly specified)	> 100 µM (inactive)	> 100 µM (inactive)	> 100 µM (inactive)	> 100 µM (inactive)	> 100 µM (inactive)	> 100 µM (inactive)	> 100 µM (inactive)	> 100 µM (inactive)	> 100 µM (inactive)	> 100 µM (inactive)	> 100 µM (inactive)	> 100 µM (inactive)	> 100 µM (inactive)	> 100 µM (inactive)	–	> 100 µM (inactive)	> 100 µM	> 100 µM (inactive)	–
Oc1ccc(CCc2cc(O)cc(O)c2)cc1 [DIHYDRORESVERATROL]	> 100 µM (inactive)	79.4 µM (inactive)	> 100 µM (inactive)	> 100 µM (inactive)	> 100 µM (inactive)	> 100 µM (inactive)	> 100 µM (inactive)	> 100 µM (inactive)	> 100 µM (inactive)	72.3 µM (inactive)	> 100 µM (inactive)	> 100 µM (inactive)	> 100 µM (inactive)	> 100 µM (inactive)	–	> 100 µM (inactive)	22.7 µM	50.4 µM (inactive)	> 100 µM (inactive)

— ChEMBL document CHEMBL1201862, “PubChem BioAssay data set” (2004)
